Results reported in patent publication US11753445B2, “Therapeutic peptides” (COHBAR, INC., priority 2016, dated 2023).
Peptide text beside a SMILES is read from it.

tested on: 3T3-L1 Adipocytes; assay: Free fatty acid levels in cultured mouse 3T3-L1 adipocytes, isoproterenol stimulated (Example 2); type: cell-based; settings: test peptides 25 μM; isoproterenol 1 nM
Outline: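 3T3-L1 cells differentiated 12–17 days into adipocytes, then exposed to test peptides at 25 μM final for 18–20 h, then 1 h, then 3 h with isoproterenol (1 nM) at 37 °C. Free fatty acids in the medium measured colorimetrically at 540 nm, corrected for untreated background and expressed relative to isoproterenol-only cells.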

Compound | Free Fatty Acid Levels in 3T3-L1 Adipocytes Expressed as a Percent of Isoproterenol Control: Percent of Control Value [%]
CC[C@H](C)[C@H](NC(=O)[C@H](Cc1ccc(O)cc1)NC(=O)CNC(=O)[C@H](C)NC(=O)[C@H](CCC(=O)O)NC(=O)[C@H](CCC(N)=O)NC(=O)[C@H](Cc1c[nH]c2ccccc12)NC(=O)[C@H](CCCNC(=N)N)NC(=O)[C@@H](C)N)C(=O)N[C@@H](Cc1ccccc1)C(=O)N[C@@H](CCC(=O)O)C(=O)N1CCC[C@H]1C(=O)N[C@@H](CCCNC(=N)N)C(=O)O [compound 244] (HELM PEPTIDE1{[dA].R.W.Q.E.A.G.Y.I.F.E.P.R}$$$$V2.0) | 90.3
CC[C@H](C)[C@H](NC(=O)[C@H](Cc1ccc(O)cc1)NC(=O)CNC(=O)[C@H](C)NC(=O)[C@H](CCC(=O)O)NC(=O)[C@H](CCC(N)=O)NC(=O)[C@H](Cc1c[nH]c2ccccc12)NC(=O)[C@H](CCCNC(=N)N)NC(=O)[C@@H](C)N)C(=O)N[C@@H](C)C(=O)N[C@@H](CCC(=O)O)C(=O)N1CCC[C@H]1C(=O)N[C@@H](CCCNC(=N)N)C(=O)N[C@@H](CCCCN)C(=O)N[C@@H](CC(C)C)C(=O)N[C@@H](C)C(=O)O [compound 245] (HELM PEPTIDE1{[dA].R.W.Q.E.A.G.Y.I.A.E.P.R.K.L.A}$$$$V2.0) | 78.1
CC[C@H](C)[C@H](NC(=O)[C@H](Cc1ccc(O)cc1)NC(=O)CNC(=O)[C@H](C)NC(=O)[C@H](CCC(=O)O)NC(=O)[C@H](CCC(N)=O)NC(=O)[C@H](Cc1c[nH]c2ccccc12)NC(=O)[C@H](CCCNC(=N)N)NC(=O)[C@@H](C)N)C(=O)N[C@@H](C)C(=O)N[C@@H](CCC(=O)O)C(=O)N1CCC[C@H]1C(=O)N[C@@H](CCCNC(=N)N)C(=O)N[C@@H](CCCCN)C(=O)N[C@@H](CC(C)C)C(=O)N[C@H](C)C(=O)O [compound 246] (HELM PEPTIDE1{[dA].R.W.Q.E.A.G.Y.I.A.E.P.R.K.L.[dA]}$$$$V2.0) | 73.9
Ac-ARWQEMGYIFYPRKLR-NH2 [compound 22] | 78.7
Ac-ERWQEMGYIFYPRKLR-NH2 [compound 183] | 81.6
Ac-LKWQEMGYIFYPLRKR-NH2 [compound 113] | 82.8
Ac-LKWQEMGYIFYPRKLR-NH2 [compound 112] | 90.5
Ac-LKWQEMGYIFYPRKR-NH2 [compound 117] | 97.7
Ac-LKWQEMGYIFYPRKRL-NH2 [compound 115] | 83.4
Ac-LKWQEMGYIFYPRLKR-NH2 [compound 114] | 78.4
Ac-LRWQEMGYIFYPLRKR-NH2 [compound 109] | 76.6
Ac-LRWQEMGYIFYPRKLR-NH2 [compound 108] | 101.3
Ac-LRWQEMGYIFYPRKR-NH2 [compound 116] | 101.8
Ac-LRWQEMGYIFYPRKRL-NH2 [compound 111] | 106.0
Ac-LRWQEMGYIFYPRLKR-NH2 [compound 110] | 82.6
Ac-MAWQEMGYIFYPRKLR-NH2 [compound 23] | 74.7
Ac-MEWQEMGYIFYPRKLR-NH2 [compound 184] | 97.1
Ac-MKWQEMGYIFYPRKLR-NH2 [compound 128] | 90.0
Ac-MREQEMGYIFYPRKLR-NH2 [compound 185] | 77.0
Ac-MRWAEMGYIFYPRKLR-NH2 [compound 25] | 27.8
Ac-MRWEEMGYIFYPRKLR-NH2 [compound 186] | 102.1
Ac-MRWNEMGYIFYPRKLR-NH2 [compound 133] | 87.5

Compound | Free Fatty Acid Levels in 3T3-L1 Adipocytes Expressed as a Percent of Isoproterenol Control: Percent of Control Value [%]
Ac-MRWQDMGYIFYPRRLR-NH2 [compound 132] | 102.6
Ac-MRWQEEGYIFYPRKLR-NH2 [compound 187] | 98.9
Ac-MRWQEMAYIFYPRKLR-NH2 [compound 28] | 35.5
Ac-MRWQEMEYIFYPRKLR-NH2 [compound 188] | 86.5
Ac-MRWQEMGEIFEPRKLR-NH2 [compound 135] | 79.0
Ac-MRWQEMGEIFYPRKLR-NH2 [compound 189] | 87.6
Ac-MRWQEMGYEFYPRKLR-NH2 [compound 190] | 95.0
Ac-MRWQEMGYIEYPRKLR-NH2 [compound 191] | 81.7
Ac-MRWQEMGYIF-NH2 [compound 64] | 90.6
Ac-MRWQEMGYIFEPRKLR-NH2 [compound 192] | 66.8
Ac-MRWQEMGYIFY-NH2 [compound 63] | 70.5
Ac-MRWQEMGYIFYERKLR-NH2 [compound 193] | 71.2
Ac-MRWQEMGYIFYPAKLR-NH2 [compound 34] | 70.7
Ac-MRWQEMGYIFYPEKLR-NH2 [compound 194] | 107.2
Ac-MRWQEMGYIFYPKKLR-NH2 [compound 129] | 82.5
Ac-MRWQEMGYIFYPRALR-NH2 [compound 35] | 31.3
Ac-MRWQEMGYIFYPRELR-NH2 [compound 195] | 58.9
Ac-MRWQEMGYIFYPRK-NH2 [compound 60] | 89.3
Ac-MRWQEMGYIFYPRKER-NH2 [compound 196] | 80.5
Ac-MRWQEMGYIFYPRKL-NH2 [compound 59] | 92.2
Ac-MRWQEMGYIFYPRKLE-NH2 [compound 197] | 84.6
Ac-MRWQEMGYIFYPRKLK-NH2 [compound 130] | 85.4

Compound | Free Fatty Acid Levels in 3T3-L1 Adipocytes Expressed as a Percent of Isoproterenol Control: Percent of Control Value [%]
Ac-MRWQEMGYIFYPRRLR-NH2 [compound 131] | 78.1
H-ERWQEAGYIAYPRKLA-OH [compound 239] | 66.6
H-ERWQEAGYIFYPR-OH [compound 235] | 71.8
H-ERWQEAGYIFYPRKLA-OH [compound 233] | 69.7
H-ERWQEMGYIFYPRKLR-OH [compound 168] | 52.2
H-MEWQEMGYIFYPRKLR-OH [compound 169] | 49.2
H-MGWQEMGYIFYPRKLR-OH [compound 77] | 112.5
H-MGYIFYPRKLR-OH [compound 42] | 115.2
H-MKWQEMGYIFYPRKLR-OH [compound 122] | 52.1
H-MREQEMGYIFYPRKLR-OH [compound 170] | 48.0
H-MRWEEMGYIFYPRKLR-OH [compound 171] | 45.9
H-MRWNEMGYIFYPRKLR-OH [compound 127] | 55.6
H-MRWQDMGYIFYPRRLR-OH [compound 126] | 55.6
H-MRWQEMEYIFYPRKLR-OH [compound 173] | 43.9
H-MRWQEMGEIFEPRKLR-OH [compound 134] | 56.2
H-MRWQEMGEIFYPRKLR-OH [compound 174] | 38.8
H-MRWQEMGYEFYPRKLR-OH [compound 175] | 50.6
H-MRWQEMGYIEYPRKLR-OH [compound 176] | 57.0
H-MRWQEMGYIF-OH [compound 50] | 97.4
H-MRWQEMGYIFEPRKLR-OH [compound 177] | 61.4
H-MRWQEMGYIFY-OH [compound 49] | 103.3
